Experimental data as given in patent publication US7834024B2, “Compositions and methods for inhibition of the JAK pathway” (Rigel Pharmaceuticals, Inc., priority 2007, dated 2010).

tested on: Ramos B-Cell Line Stimulated with IL-4 (JAK-1 and JAK-3 / Stat-6, CD23); assay: Assay for Ramos B-Cell Line Stimulated with IL-4 (CD23 upregulation, FACS); assay type: cell-based; conditions: Homo sapiens, Ramos, human Ramos B cells, compound 1 hour, IL-4 50 units/mL for 20-24 hours, anti-CD23-PE FACS; read-out: Example 2 (IC50)
Source text: One means of assaying for such inhibition is detection of the effect of the 2,4-pyrimidinediamine compounds on the upregulation of downstream gene products. In the Ramos/IL4 assay, B-cells are stimulated with the cytokine Interleukin-4 (IL-4) leading to the activation of the JAK/Stat pathway through phosphorylation of the JAK family kinases, JAK1 and JAK3, which in turn phosphorylate and activate the transcription factor Stat-6. […] To study the effect of inhibitors (e.g., the 2,4-substituted pyrimindinediamine compounds described herein) on the JAK1 and JAK3 kinases, human Ramos B cells are stimulated with human IL-4. 20 to 24 hours post stimulation, cells are stained for upregulation of CD23 and analyzed using flow cytometry (FACS).
B-cells stimulated with cytokine Interleukin-4 (IL-4) activate the JAK/Stat pathway through phosphorylation of the JAK family kinases, JAK-1 and JAK-3, which in turn phosphorylate and activate the transcription factor Stat-6. […] To study the effect of inhibitors on the JAK family kinases, human Ramos B cells were stimulated with human IL-4.
Cells were maintained at a density of 3.5×10^5. The day before the experiment, Ramos B-cells were diluted to 3.5×10^5 cells/mL to ensure that they were in a logarithmic growth phase.
Cells were spun down and suspended in RPMI with 5% serum. 5×10^4 cells were used per point in a 96-well tissue culture plate. Cells were pre-incubated with compound or DMSO (Sigma-Aldrich, St. Louis, Mo., Cat No. D2650) vehicle control for 1 hour in a 37° C. incubator. Cells were then stimulated with IL-4 (Peprotech Inc., Rocky Hill, N.J., Cat No. 200-04) for a final concentration of 50 units/mL for 20-24 hours. […] Detection was performed using a BD LSR I System Flow Cytometer, purchased from Becton Dickinson Biosciences of San Jose, Calif.

Compound | IC50
Cc1cc(Nc2nc(Nc3ccc(C(N)=O)cc3)ncc2F)cc(C)c1OCC#N [Compound I-90, N2-(4-Aminocarbonylphenyl)-N4-(4-cyanomethoxy-3,5-dimethylphenyl)-5-fluoro-2,4-pyrimidinediamine] | 91.5 nM
Cc1nc(COc2ccc(Nc3nc(Nc4ccc(C#N)cc4)ncc3F)cc2)no1 [Compound I-58, N2-(4-Cyanophenyl)-5-fluoro-N4-[4-((5-methyl-1,2,4-oxadiazol-3-yl)methoxy)phenyl]-2,4-pyrimidinediamine] | 967 nM
Cc1noc(Cc2ccc(Nc3nc(Nc4ccc(CC#N)cc4)ncc3F)cc2)n1 [Compound I-113, N2-(4-Cyanomethylphenyl)-5-fluoro-N4-[4-((3-methyl-1,2,4-oxadiazol-5-yl)methyl)phenyl]-2,4-pyrimidinediamine] | 149 nM
Cc1cc(Nc2nc(Nc3ccc(C(N)=O)cc3)ncc2F)ccc1OCC#N [Compound I-87, N2-(4-Aminocarbonylphenyl)-N4-(4-cyanomethoxy-3-methylphenyl)-5-fluoro-2,4-pyrimidinediamine] | 44.4 nM
N#CCOc1ccc(Nc2nc(Nc3ccc(C(N)=O)cc3)ncc2F)cc1 [Compound I-27, N2-(4-Aminocarbonylphenyl)-N4-(4-cyanomethoxyphenyl)-5-fluoro-2,4-pyrimidinediamine] | 5.21 nM
N#CCOc1cccc(Nc2nc(Nc3ccc(C#N)cc3)ncc2F)c1 [Compound I-46, N4-(3-Cyanomethoxyphenyl)-N2-(4-cyanophenyl)-5-fluoro-2,4-pyrimidinediamine] | 1470 nM
N#CCc1ccc(Nc2ncc(F)c(Nc3ccc(CC#N)cc3)n2)cc1 [Compound I-71, N2,N4-Bis(4-cyanomethylphenyl)-5-fluoro-2,4-pyrimidinediamine] | 195 nM
N#CCOc1ccc(Nc2nc(Nc3cccc(C(N)=O)c3)ncc2F)cc1F [Compound I-102, N2-(3-Aminocarbonylphenyl)-N4-(4-cyanomethoxy-3-fluorophenyl)-5-fluoro-2,4-pyrimidinediamine] | 259 nM
COC(=O)c1ccc(Nc2nc(Nc3cccc(C(N)=O)c3)ncc2F)s1 [Compound I-123, N2-(3-Aminocarbonylphenyl)-5-fluoro-N4-(5-methoxycarbonylthiophen-2-yl)-2,4-pyrimidinediamine] | 1060 nM
CCc1cc(Nc2ncc(F)c(Nc3ccc(OCC#N)cc3)n2)cc(C#N)c1Cl [Compound I-104, N2-(4-Chloro-3-cyano-5-ethylphenyl)-N4-(4-cyanomethoxyphenyl)-5-fluoro-2,4-pyrimidinediamine] | 1140 nM
Cc1noc(COc2ccc(Nc3nc(Nc4ccc(CC#N)cc4)ncc3F)cc2)n1 [Compound I-110, N2-(4-Cyanomethylphenyl)-5-fluoro-N4-[4-((3-methyl-1,2,4-oxadiazol-5-yl)methoxy)phenyl]-2,4-pyrimidinediamine] | 29.8 nM
Cc1noc(CCCc2ccc(Nc3nc(Nc4cccc(C#N)c4)ncc3F)cc2)n1 [Compound I-114, N2-(3-Cyanophenyl)-5-fluoro-N4-[4-(3-(3-methyl-1,2,4-oxadiazol-5-yl)propyl)phenyl]-2,4-pyrimidinediamine] | 1750 nM
CNC(=O)COc1cccc(Nc2ncc(N)c(Nc3ccc4cn[nH]c4c3)n2)c1 [Compound V-4] | 1970 nM
Cc1noc(CCc2ccc(Nc3nc(Nc4ccc(CCC#N)cc4)ncc3F)cc2)n1 [Compound I-121, 5-Fluoro-N4-[4-(2-(3-methyl-1,2,4-oxadiazol-5-yl)ethyl)phenyl]-N2-[4-(2-cyanoethyl)phenyl]-2,4-pyrimidinediamine] | 2140 nM
CNC(=O)c1cc(Nc2ncc(F)c(Nc3ccc(CC#N)cc3)n2)ccc1N1CCN(C)CC1 [Compound I-75, N4-(4-Cyanomethylphenyl)-5-fluoro-N2-[3-methylaminocarbonyl-4-(4-methylpiperazin-1-yl)phenyl]-2,4-pyrimidinediamine] | 694 nM
NC(=O)COc1cccc(Nc2nc(Nc3ccc(C(N)=O)cc3)ncc2F)c1 [Compound I-32, N4-(3-Aminocarbonylmethoxyphenyl)-N2-(4-aminocarbonylphenyl)-5-fluoro-2,4-pyrimidinediamine] | 184 nM

Other lines, results leading:

IC50 | Compound
73.4 nM | Cc1cnc(Nc2cccc(C#N)c2)nc1Nc1ccc2c(c1)NC(=O)CS2 [II-9, N2-(3-Cyanophenyl)-5-methyl-N4-(3-oxo-2H,4H-benzo[1,4]thiazin-6-yl)-2,4-pyrimidinediamine]
1740 nM | CCc1cc(Nc2ncc(F)c(Nc3ccc4c(c3)NC(=O)C(F)(F)O4)n2)cc(C#N)c1Cl [II-24, N2-(4-Chloro-3-cyano-5-ethylphenyl)-N4-(2,2-difluoro-3-oxo-4H-benzo[1,4]oxazin-6-yl)-5-fluoro-2,4-pyrimidinediamine]
144 nM | COc1cc(Nc2nc(Nc3ccc4oc(C(=O)NCCN5CCOCC5)cc4c3)ncc2F)ccc1Cl [III-2, N4-(4-Chloro-3-methoxyphenyl)-5-fluoro-N2-[2-(2-(N-morpholinyl)ethylaminocarbonyl)benzofuran-5-yl]-2,4-pyrimidinediamine]
609 nM | Cc1cnc(Nc2ccc(C(N)=O)cc2)nc1Nc1ccc2c(c1)CCC(=O)N2C [II-29, N2-(4-Aminocarbonylphenyl)-5-methyl-N4-(1-methyl-2-oxo-1,2,3,4-tetrahydroquinolin-6-yl)-2,4-pyrimidinediamine]
69.3 nM | COc1cc(Nc2ncc(F)c(Nc3ccc4c(c3)NC(=O)C(C)(C)O4)n2)cc(OCC#N)c1OC [II-15, N2-(3-Cyanomethoxy-4,5-dimethoxyphenyl)-N4-(2,2-dimethyl-3-oxo-4H-benzo[1,4]oxazin-6-yl)-5-fluoro-2,4-pyrimidinediamine]
899 nM | Cc1cnc(Nc2cccc(C(N)=O)c2)nc1Nc1ccc2c(c1)CCC(=O)N2C [II-28, N2-(3-Aminocarbonylphenyl)-5-methyl-N4-(1-methyl-2-oxo-1,2,3,4-tetrahydroquinolin-6-yl)-2,4-pyrimidinediamine]

same assay, conditions: human Ramos B cells, compound 1 hour, IL-4 50 units/mL for 20-24 hours, anti-CD23-PE FACS; read-out: Example 2 (IC50)

Compound | IC50
CN1CCN(C(=O)c2cccc(Nc3ncc(F)c(Nc4ccc(OCC#N)cc4)n3)c2)CC1 [Compound I-40] | 567 nM
CC(C#N)Oc1ccc(Nc2nc(Nc3ccc(C#N)cc3)ncc2F)cc1 (stereo not drawn) [Compound I-79, N4-[4-(I-Cyanoethoxy)phenyl]-N2-(4-cyanophenyl)-5-fluoro-2,4-pyrimidinediamine] | 361 nM
Cc1cnc(Nc2cccc(C(N)=O)c2)nc1Nc1ccc(OCc2ccccn2)cc1 [Compound I-134, N2-(3-Aminocarbonylphenyl)-5-methyl-N4-[4-(2-pyridinylmethyleneoxy)phenyl]-2,4-pyrimidinediamine] | 84.6 nM
N4-(4-(1-Cyanoethoxy)-3,5-dimethyl phenyl]-5-fluoro-N2-[4-((4-methylpiperazin-1-yl)carbonyl)phenyl]-2,4-pyrimidinediamine [Compound I-98] | 276 nM
CNC(=O)COc1cccc(Nc2ncc(F)c(Nc3ccc(Cc4ccncc4)cc3)n2)c1 [Compound I-132, 5-Fluoro-N2-[3-(N-methylaminocarbonylmethyleneoxy)phenyl]-N4-[4-(4-pyridinylmethyl)phenyl]-2,4-pyrimidinediamine] | 322 nM
CN1CCN(C(=O)c2ccc(Nc3ncc(F)c(Nc4cccc(OCC#N)c4)n3)cc2)CC1 [Compound I-53, N4-(3-Cyanomethoxyphenyl)-5-fluoro-N2-[4-((4-methylpiperazin-1-yl)carbonyl)phenyl]-2,4-pyrimidinediamine] | 1420 nM
CNC(=O)COc1cccc(Nc2ncc(F)c(Nc3cc(OC)c(OC)c(OCC#N)c3)n2)c1 [Compound I-109, N4-(3-Cyanomethoxy-4,5-dimethoxyphenyl)-5-fluoro-N2-[3-(N-methylaminocarbonylmethyleneoxy)phenyl]-2,4-pyrimidinediamine] | 660 nM

Continued, values first:

IC50 | Compound
163 nM | Cc1cnc(Nc2cccc(C(N)=O)c2)nc1Nc1ccc2c(n1)NC(=O)C(C)(C)O2 [II-40, N2-(3-Aminocarbonylphenyl)-N4-(2,2-dimethyl-3-oxo-4H-5-pyrido[1,4]oxazin-6-yl)-5-methyl-2,4-pyrimidinediamine]
1010 nM | N2-[2,3-Dihydro-1-(2-(N-morpholinyl)ethylaminocarbonyl)-1H-indol-6-yl]-N4-[4-(2-propynyloxy)phenyl]-2,4-pyrimidinediamine [VI-1]
672 nM | CNC(=O)COc1cccc(Nc2ncc(F)c(Nc3ccc4c(c3)N(Cc3ccccn3)C(=O)CO4)n2)c1 [II-14, 5-Fluoro-N2-[3-(N-methylaminocarbonylmethyleneoxy)phenyl]-N4-[3-oxo-4-(2-pyridinylmethyl)-2H-benzo[1,4]oxazin-6-yl]-2,4-pyrimidinediamine]
645 nM | N4-(3-Chloro-4-methoxyphenyl)-N2-[1-(2-(N-morpholinyl)ethylaminocarbonyl)-1H-indol-6-yl]-2,4-pyrimidinediamine [VI-3]
